Source: patent US12344610B2, “APOL1 inhibitors and methods of use” (Maze Therapeutics, Inc., priority 2022, dated 2025)

Molecular target: T1, APOL1 G2 (Homo sapiens, UniProt O14791, DEL388-389)
T1 construct: expressed in transfected cells; host or cells: HEK293 T-REx clonal line stably expressing GCaMP6f (HEK T-REx/GCaMP6f/APOL1 G2 K6.3), doxycycline induced
T1 sequence (O14791 with tags, fused parts or gaps DEL388-389): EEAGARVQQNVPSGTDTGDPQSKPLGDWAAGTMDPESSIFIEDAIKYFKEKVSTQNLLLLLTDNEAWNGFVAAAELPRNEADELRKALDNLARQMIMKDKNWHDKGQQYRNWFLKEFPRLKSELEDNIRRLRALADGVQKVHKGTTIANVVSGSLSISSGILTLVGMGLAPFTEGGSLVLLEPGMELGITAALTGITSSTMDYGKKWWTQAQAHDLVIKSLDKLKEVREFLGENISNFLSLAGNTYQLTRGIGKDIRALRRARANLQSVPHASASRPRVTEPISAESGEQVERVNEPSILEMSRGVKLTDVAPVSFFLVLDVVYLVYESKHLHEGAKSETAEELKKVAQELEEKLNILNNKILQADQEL
Experiment: APOL1-mediated calcium transport (calcium influx) assay, HEK T-REx/GCaMP6f/APOL1 G2 K6.3 cells, FLIPR TETRA
Assay type: cell-based
Settings: prevention of calcium influx; geometric mean of at least 2 assay runs; † = average of a technical replicate from a single assay run
Summary of the method: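 A HEK293 T-REx clone stably expressing GCaMP6f had APOL1 G2 induced with doxycycline (20 ng/mL solution added) for 6 h. Cells were then washed into Ca2+-free Tyrode's buffer (pH 7.4) and preincubated with compounds (duplicate 8-point) for 10 min at room temperature. Ca2+ injection to 5 mM final produced FLIPR GCaMP fluorescence, giving AC50 for influx inhibition (geometric mean, ≥2 runs).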

**Q.** `CS(=O)(=O)N1CC2(CN(C(=O)c3ccc(OCCN4CCC5(CC4)C(=O)Nc4ccc(Cl)cc45)cc3F)C2)C1` [Compound 273, 5-chloro-1′-[2-(3-fluoro-4-{6-methanesulfonyl-2,6-diazaspiro[3.3]heptane-2-carbonyl}phenoxy)ethyl]-1,2-dihydrospiro[indole-3,4′-piperidin]-2-one] was tested. Which AC50 did it give?
**A.** Its AC50 is 2100 nM.

**Q.** `C[C@]1(O)C[C@@H](N2C(=O)CCc3cc(OCCN4CCC5(CC4)C(=O)Nc4ccc(C(F)F)cc45)cnc32)C1` [Compound 274, 5-(difluoromethyl)-1′-[2-({7-oxo-8-[(cis)-3-hydroxy-3-methylcyclobutyl]-5,6,7,8-tetrahydro-1,8-naphthyridin-3-yl}oxy)ethyl]-1,2-dihydrospiro[indole-3,4′-piperidin]-2-one] was tested. Which AC50 did it give?
**A.** The AC50 was 722 nM.

**Q.** `C[C@]1(O)C[C@@H](N2C(=O)CCc3cc(OCCN4CCC5(CC4)C(=O)Nc4ccc(Cl)cc45)cnc32)C1` [Compound 275, 5-chloro-1′-[2-({7-oxo-8-[(cis)-3-hydroxy-3-methylcyclobutyl]-5,6,7,8-tetrahydro-1,8-naphthyridin-3-yl}oxy)ethyl]-1,2-dihydrospiro[indole-3,4′-piperidin]-2-one] was tested. Which AC50 did it give?
**A.** Its AC50 is 640 nM.

**Q.** With `CS(=O)(=O)C1(c2ncc(OCCN3CCC4(CC3)C(=O)Nc3ccc(Cl)cc34)cn2)COC1` [Compound 276, 5-chloro-1′-(2-{[2-(3-methanesulfonyloxetan-3-yl)pyrimidin-5-yl]oxy}ethyl)-1,2-dihydrospiro[indole-3,4′-piperidin]-2-one] as the compound, how does the AC50 read?
**A.** Its AC50 is 1750 nM.

**Q.** `CS(=O)(=O)C1(c2ncc(OCCN3CCC4(CC3)C(=O)Nc3ccc(C#N)cc34)cc2F)CC1` [Compound 283, 1′-(2-{[5-fluoro-6-(1-methanesulfonylcyclopropyl)pyridin-3-yl]oxy}ethyl)-2-oxo-1,2-dihydrospiro[indole-3,4′-piperidine]-5-carbonitrile] was tested. Which AC50 did it give?
**A.** Its AC50 is 2000 nM.

**Q.** For `CC(O)c1ncc(OCCN2CCC3(CC2)C(=O)Nc2ccc(Cl)cc23)cn1` (stereo not shown) [Compound 284, 5-chloro-1′-(2-{[2-(1-hydroxyethyl)pyrimidin-5-yl]oxy}ethyl)-1,2-dihydrospiro[indole-3,4′-piperidin]-2-one], which AC50 is on record?
**A.** The AC50 was 756 nM.

**Q.** For `C[C@]1(O)C[C@@H](N2C(=O)OCc3cc(OCCN4CCC5(CC4)C(=O)Nc4ccc(Cl)cc45)cnc32)C1` [Compound 289, 5-chloro-1′-[2-({2-oxo-1-[(cis)-3-hydroxy-3-methylcyclobutyl]-1H,2H,4H-pyrido[2,3-d][1,3]oxazin-6-yl]oxy)ethyl]-1,2-dihydrospiro[indole-3,4′-piperidin]-2-one], which AC50 is on record?
**A.** Its AC50 is 552 nM.

**Q.** For `CC1(O)CN(c2ncc(OCCN3CCC4(CC3)C(=O)Nc3ccc(Cl)cc34)cn2)C1` [Compound 300, 5-chloro-1′-(2-{[2-(3-hydroxy-3-methylazetidin-1-yl)pyrimidin-5-yl]oxy}ethyl)-1,2-dihydrospiro[indole-3,4′-piperidin]-2-one], which AC50 is on record?
**A.** The AC50 was 674 nM.

**Q.** `O=C1Nc2ccc(Cl)cc2C12CCN(CCOc1cnc(N3CC(O)C3)nc1)CC2` [Compound 301, 5-chloro-1′-(2-{[2-(3-hydroxyazetidin-1-yl)pyrimidin-5-yl]oxy}ethyl)-1,2-dihydrospiro[indole-3,4′-piperidin]-2-one] was tested. Which AC50 did it give?
**A.** The AC50 was 586 nM.

**Q.** `CS(=O)(=O)C1CN(c2ncc(OCCN3CCC4(CC3)C(=O)Nc3ccc(Cl)cc34)cn2)C1` [Compound 302, 5-chloro-1′-(2-{[2-(3-methanesulfonylazetidin-1-yl)pyrimidin-5-yl]oxy}ethyl)-1,2-dihydrospiro[indole-3,4′-piperidin]-2-one] was tested. Which AC50 did it give?
**A.** Its AC50 is 1030 nM.

**Q.** Which AC50 does the source give for `CC(C)(O)c1ncc(OCCN2CCC3(CC2)C(=O)Nc2ccc(Cl)cc23)cn1` [Compound 305, 5-chloro-1′-(2-{[2-(2-hydroxypropan-2-yl)pyrimidin-5-yl]oxy}ethyl)-1,2-dihydrospiro[indole-3,4′-piperidin]-2-one] here?
**A.** Its AC50 is 649 nM.

**Q.** Which AC50 does the source give for `CC1(O)CN(c2nccc3cc(OCCN4CCC5(CC4)C(=O)Nc4ccc(Cl)cc45)cnc23)C1` [Compound 306, 5-chloro-1′-(2-{[8-(3-hydroxy-3-methylazetidin-1-yl)-1,7-naphthyridin-3-yl]oxy}ethyl)-1,2-dihydrospiro[indole-3,4′-piperidin]-2-one] here?
**A.** Its AC50 is 1400 nM.

**Q.** For `O=C1Nc2ccc(Cl)cc2C12CCN(CCOc1cnc3c(N4CC(O)C4)nccc3c1)CC2` [Compound 314, 5-chloro-1′-(2-{[8-(3-hydroxyazetidin-1-yl)-1,7-naphthyridin-3-yl]oxy}ethyl)-1,2-dihydrospiro[indole-3,4′-piperidin]-2-one], which AC50 is on record?
**A.** Its AC50 is 968 nM.
